Data on 21 compounds can be found in paper PMC3045100, “Cell-Penetrating Penta-Peptides (CPP5s): Measurement of Cell Entry and Protein-Transduction Activity” (Pharmaceuticals, 2010).

Residues, ends and D or L forms follow the SMILES beside them. *: point of attachment. 5FAM = O=C1OC2(c3ccc(O)cc3Oc3cc(O)ccc32)c2ccc(C(=O)*)cc21

The test system of one series is Jurkat cells. Nature of the series: Cell entry in cells lacking caveolin-mediated endocytosis. The format is cell-based. Particulars: cells reported to lack caveolin-mediated endocytotic activity; data not shown. An excerpt:
Chinese hamster ovary (CHO) A745 cells lack proteoglycans in the plasma membrane, and this cell line has been used to determine whether proteoglycans are required for CPP entry. […] (Figure 3c and d). The cell-penetrating activity of CPP5s was also examined in Jurkat cells that are reported to lack caveolin-mediated endocytotic activity.

Series [1] has as its system lysosomes of HeLa cells and DAMI cells. Nature of the series: Co-localization of Fam-VPTLK with lysosomes (LysoTracker red). The series is classed as cell-based. The conditions noted are these: Fam-VPTLK 50 μM and LysoTracker 100 nM, 1 h, 37 °C, microscopy. An excerpt:
Lysosomes are known to contain molecules which have entered the cell through pinocytosis. To determine whether CPP5s use pinocytotic pathways for their cell entry, the localizations of Fam-labeled CPP5s and lysosomes (labeled by LysoTracker® Red) were compared. […] In contrast, FITC-labeled transferrin and LysoTracker-Red co-localized extensively, which is consistent with the understanding that transferrin enters cells through receptor-mediated endocytosis (Figure 2c).
Figure 2 Mechanism of cell entry of CPP5s. a and b. […] Microscopic analysis of the co-localization of Fam-VPTLK with lysosome-staining dye (LysoTracker™ red DND-99, L7528 Invitrogen). Hela cells (a) and DAMI cells (b) were incubated with Fam-VPTLK (50 μM) and LysoTracker (100 nM) for 1 h at 37 °C. c. FITC-labeled Transferin (FITC-Transferin) co-localized with lysosome. HeLa cells were incubaled with FITC-transferin (100 nM) and LysoTracker (100 nM) for 1 h at 37 °C. d. […] Cells were incubated with peptides for 1 h and the cellular fluorescence intensity was measured by fluorescence microscopy equipped with image analysis software (for Fam-labeled peptides) or FACS (for Tamra-labeled peptides) as described in Experimental Procedures. […] The results are shown as percentages of the fluorescence intensity of inhibitor-treated cells (the intensity of non-treated cells is designated as 100%). […]

The subject of series [2] is HeLa cells. Put plainly: FACS analysis of cell penetration of Fam-VPTLK versus medium concentration. The format is cell-based. Particulars: 3 h, up to 1.6 mM in medium, triplicate samples. The protocol: For examination of the cell-penetrating activity of 5,6-carboxyfluorescein (Fam)-labeled CPP5 peptides (Fam-VPMLK, Fam-VPTLK), DAMI cells and HeLa cells (5.0×10^4 cells/mL) were incubated with different concentrations of Fam-labeled peptides for different time periods. Excess peptides were removed by extensive washing with Hanks’ buffered saline solution (HBSS) as previously reported and cellular entry of Fam-labeled peptides was analyzed using a fluorescence microscope (Nikon; TE200), a confocal scanning laser microscope (Leica; TCS SP2), and a FACS instrument (XL Aria), or a Coulter EPICS® XL-MCR.
Background: A flow cytometer gives signals particle by particle.

The subject of the next series is DAMI cells. Put plainly: Cell-penetration activity of Fam-labeled CPP5s, cellular fluorescence by FACS and/or microscopy. The format is cell-based, human. Further details: key to Cell Penetration, cell entry confirmed by microscopy only: Cell entry of some peptides was confirmed by microscopy only, and these peptides are indicated with a ‘+’ without a percentage value. The conditions noted are these: peptides Fam-labeled on the N-terminus, 200 μM, 3 h, 37 °C; for Cell Penetration, cell entry confirmed by microscopy only: intracellular fluorescent signal by microscopy, no comparison with KLPVM; for Cell Penetration (%), percentage of the activity of KLPVM: fluorescence intensity of cells by FACS, mean of triplicate samples. The protocol:
Figure 1 Cell-penetration activity of CPP5s. a. List of cell-penetrating penta-peptides (CPP5s). […] Peptide sequences are color-coded to show the constant amphipathic amino acid arrangement in each CPP5. Cell-penetration activity was determined by fluorescence intensity of cells (DAMI cells: a human megakaryocytic cancer cell line) incubated with fluorescein (Fam)-labeled peptides (200 μM) for 3 h at 37 °C as described in Experimental Procedures. Fam was labeled on the N-terminus of all peptides examined. Cells were analyzed by FACS and/or microscopy. The activity of each peptide is shown as a percentage of the activity of KLPVM. Each value represents the mean of triplicate samples. Cell entry of some peptides was confirmed by microscopy only, and these peptides are indicated with a ‘+’ without a percentage value. For cytoprotective activity (right column), the information is based on previous studies and the activity was determined by the protection of cells from Bax overexpression and other apoptotic stimuli such as etoposide treatment. b to e. Cell entry of Fam-labeled VPTLK, KLPVM, TAT, and poly-arginine (R8). HeLa cells were incubated with Fam-labeled VPTLK, KLPVM (200 μM), Fam-TAT (10 μM), and Fam-R8 (10 μM) for 1 h at 37 °C. Images are at 20× magnification. f. Comparison of the cytotoxicity of CPP5 and TAT. Primary cultured mouse embryonic fibroblast (MEF) cells were treated with various concentrations of peptides for 24 h as indicated. Then, apoptosis was analyzed as described in Experimental Procedures. Each bar represents the mean of triplicate samples and standard error. TEXT PRINTED IN THE PICTURE: (a) VPMLK: Cell Penetration (%): 97 ± 4.3; Cytoprotection: + | (a) VPTLK: Cell Penetration (%): 61 ± 1.7; Cytoprotection: + | (a) VPALR: Cell Penetration (%): 79 ± 1.5; Cytoprotection: + | (a) VSALK: Cell Penetration (%): 90 ± 3; Cytoprotection: N.D. | (a) PMLKE: Cell Penetration (%): 65 ± 3.7; Cytoprotection: + | (a) VPALK: Cell Penetration (%): 71 ± 2.2; Cytoprotection: + | (a) VSLKK: Cell Penetration (%): +; Cytoprotection: - | (a) VSGKK: Cell Penetration (%): +; Cytoprotection: - | (a) KLPVM: Cell Penetration (%): 100 ± 2.3; Cytoprotection: - | (a) IPMIK: Cell Penetration (%): 47 ± 1.4; Cytoprotection: - | (a) KLGVM: Cell Penetration (%): +; Cytoprotection: - | (a) KLPVT: Cell Penetration (%): +; Cytoprotection: - | (a) VPMIK: Cell Penetration (%): +; Cytoprotection: N.D. | (a) IPALK: Cell Penetration (%): +; Cytoprotection: N.D. | (a) IPMLK: Cell Penetration (%): +; Cytoprotection: N.D. | (a) VPTLQ: Cell Penetration (%): 70 ± 4; Cytoprotection: - | (a) QLPVM: Cell Penetration (%): +; Cytoprotection: - | (a) ELPVM: Cell Penetration (%): +; Cytoprotection: - | (a) VPTLE: Cell Penetration (%): 80 ± 1.9; Cytoprotection: N.D.
CPP5s that were designed based on the Bax-binding domain of Ku70 of several species are named Bax-Inhibiting Peptides (BIPs); they are VPMLK, PMLKE, VPTLK, VPALR, and VPALK. VPMLK and PMLKE were designed from human Ku70, and the same sequence exists in the Ku70 homologues of dog and monkey. VPTLK and VPALR are based on mouse and rat Ku70, respectively. VPALK was designed from cattle Ku70, and the same sequence exists in Ku70 of the African clawed frog. Cytoprotective activities of these BIPs have been previously reported, both in cell culture and animal models. […] The observed variation in cell-entering activity of Fam-labeled-CPP5s is shown in Figure 1a as a percentage of the activity of KLPVM. In all cases, Fam was attached to the N-terminal amino acid. For some CPP5s, cell-penetration activity was confirmed by detection of an intracellular fluorescent signal by microscopy. These latter results are indicated with ‘+’ symbols, and a quantitative comparison with the activity of KLPVM was not performed. […]

Series [3] concerns Primary cultured mouse embryonic fibroblast (MEF) cells. Nature of the series: Cytotoxicity (apoptosis, Hoechst nuclear staining) of CPP5 and TAT. The format is cell-based. On the procedure: List of cell-penetrating penta-peptides (CPP5s). […] Peptide sequences are color-coded to show the constant amphipathic amino acid arrangement in each CPP5. […] Fam was labeled on the N-terminus of all peptides examined. Cells were analyzed by FACS and/or microscopy. The activity of each peptide is shown as a percentage of the activity of KLPVM. Each value represents the mean of triplicate samples. Cell entry of some peptides was confirmed by microscopy only, and these peptides are indicated with a '+' without a percentage value. For cytoprotective activity (right column), the information is based on previous studies and the activity was determined by the protection of cells from Bax overexpression and other apoptotic stimuli such as etoposide treatment. b to e. Cell entry of Fam-labeled […], and poly-arginine (R8). […] Comparison of the cytotoxicity of CPP5 and TAT. Primary cultured mouse embryonic fibroblast (MEF) cells were treated with various concentrations of peptides for 24 h as indicated. Then, apoptosis was analyzed as described in Experimental Procedures. Each bar represents the mean of triplicate samples and standard error.

Series [4] has as its system HeLa cells. Put plainly: Effect of pinocytosis and endocytosis inhibitors on cell entry of Fam- or Tamra-labeled peptides. The format is cell-based. Particulars: serum-free DMEM, cytochalasin D 10 µM 30 min pre-treatment, then Tamra-labeled peptide 1 h, VPTLK 30 μM, R8 10 μM, FACS, mean of three experiments and standard error. On the procedure:
HeLa cells were incubated with each inhibitor in serum-free DMEM for 30 min, followed by incubation for 1 h with Fam-labeled CPP5 peptides (30 μM). Then, the cells were extensively washed with Hanks’ Buffered Salt Solution (HBSS) and complete DMEM, prior to the detection of fluorescence by microscopy and FACS. None of amiloride, chlorpromazine, cytochalasin D, Filipin III, nocodazole and methyl-beta-cyclodextrin blocked the entry of Fam-labeled VPTLK and KLPVM into HeLa cells. […] As a control experiment to validate the effectiveness of these inhibitors, FITC-transferrin (for chlorpromazine) and rhodamine-labeled EGF (for cytochalasin D and amiloride) were used. […] To compare the cell-penetrating mechanism between CPP5s and arginine-rich CPPs, the uptake of TAT and R8 was also examined in the presence of these inhibitors.
Figure 2 Mechanism of cell entry of CPP5s. a and b. […] Cells were incubated with peptides for 1 h and the cellular fluorescence intensity was measured by fluorescence microscopy equipped with image analysis software (for Fam-labeled peptides) or FACS (for Tamra-labeled peptides) as described in Experimental Procedures. […] The results are shown as percentages of the fluorescence intensity of inhibitor-treated cells (the intensity of non-treated cells is designated as 100%). […]

In the case of `CSCC[C@H](NC(=O)[C@@H](NC(=O)[C@@H]1CCCN1C(=O)[C@H](CC(C)C)NC(=O)[C@H](CCCCN)NC(=O)c1ccc2c(c1)C(=O)OC21c2ccc(O)cc2Oc2cc(O)ccc21)C(C)C)C(=O)O` [Fam-KLPVM] (5FAM-KLPVM-OH), the “Entry into Jurkat cells” value with Jurkat cells is on record as “able to enter Jurkat cells”.

In the case of `CC(C)C[C@H](NC(=O)[C@@H](NC(=O)[C@@H]1CCCN1C(=O)[C@@H](NC(=O)c1ccc2c(c1)C(=O)OC21c2ccc(O)cc2Oc2cc(O)ccc21)C(C)C)[C@@H](C)O)C(=O)N[C@@H](CCCCN)C(=O)O` [Fam-VPTLK] (5FAM-VPTLK-OH), the “Entry into Jurkat cells” value with Jurkat cells is on record as “able to enter Jurkat cells”. For the same compound, in series [1], the Co-localization with lysosomes result was “partially co-localizes with lysosomes”. The “Cell entry of Fam-VPTLK as a function of medium concentration” value in the series on HeLa cells [2] was “linear increase up to the maximum concentration examined”.

As for “ELPVM [cell-penetrating penta-peptide (CPP5)]”, the “Cell Penetration, cell entry confirmed by microscopy only” value (“Cell Penetration, cell entry confirmed” for short) in the series with DAMI cells is reported as “+”.

With “IPALK [cell-penetrating penta-peptide (CPP5)]”, the “Cell Penetration, cell entry confirmed” value in the series with DAMI cells is listed as “+”.

As for “IPMIK [cell-penetrating penta-peptide (CPP5)]”, the “Cell Penetration (%), percentage of the activity of KLPVM” value (“Cell Penetration (%), percentage” for short) in the series with DAMI cells worked out at 47 ± 1.4%.

On to “IPMLK [cell-penetrating penta-peptide (CPP5)]”, for which the “Cell Penetration, cell entry confirmed” value in the series with DAMI cells is on record as “+”.

Take “KLGVM [cell-penetrating penta-peptide (CPP5)]”: in the series on DAMI cells, the “Cell Penetration, cell entry confirmed” value was “+”.

Turning to KLPVM, the “Cell Penetration (%), percentage” value in the series on DAMI cells was determined as 100 ± 2.3%. Besides, the “Cytotoxic effect at 1.6 mM in the cell culture medium” value in series [3] is recorded as “did not show significant cytotoxic effects”.

On to “KLPVT [cell-penetrating penta-peptide (CPP5)]”, for which the “Cell Penetration, cell entry confirmed” value in the series with DAMI cells is on record as “+”.

As for PMLKE, the “Cell Penetration (%), percentage” value in the series on DAMI cells is recorded as 65 ± 3.7%.

For “QLPVM [cell-penetrating penta-peptide (CPP5)]”, the “Cell Penetration, cell entry confirmed” value in the series on DAMI cells was “+”.

Regarding Tamra-VPTLK [Tamra-labeled VPTLK], the “Relative Fluorescence Intensity (No Inhibitor=100%), Cytochalasin D, Tamra-labeled peptides” value in the series with HeLa cells [4] turned out to be 57±4%.

Regarding VPALK, the “Cell Penetration (%), percentage” value in the series with DAMI cells stood at 71 ± 2.2%.

For VPALR, the “Cell Penetration (%), percentage” value in the series on DAMI cells worked out at 79 ± 1.5%.

“VPMIK [cell-penetrating penta-peptide (CPP5)]”: in the series with DAMI cells, the “Cell Penetration, cell entry confirmed” value was “+”.

Regarding VPMLK, the “Cell Penetration (%), percentage” value in the series on DAMI cells worked out at 97 ± 4.3%.

With “VPTLE [cell-penetrating penta-peptide (CPP5)]”, the “Cell Penetration (%), percentage” value with DAMI cells was determined as 80 ± 1.9%.

Regarding “VPTLQ [cell-penetrating penta-peptide (CPP5)]”, in the series on DAMI cells, the “Cell Penetration (%), percentage” value stood at 70 ± 4%.

On to “VSALK [cell-penetrating penta-peptide (CPP5)]”, for which, in the series with DAMI cells, the “Cell Penetration (%), percentage” value was found to be 90 ± 3%.

For the compound “VSGKK [cell-penetrating penta-peptide (CPP5)]”, the “Cell Penetration, cell entry confirmed” value in the series on DAMI cells is listed as “+”.

Turning to “VSLKK [cell-penetrating penta-peptide (CPP5)]”, the “Cell Penetration, cell entry confirmed” value in the series with DAMI cells is given as “+”.
